Publication PMC11277004, “Di- and Triselenoesters—Promising Drug Candidates for the Future Therapy of Triple-Negative Breast Cancer” (International Journal of Molecular Sciences, 2024)
Like-named read-outs stand apart in the source and are kept apart here.

Experiments:
Format in all cases: cell-based, human
[1] = test system: MCF-7 breast cancer cells; experiment: Mitochondrial membrane potential (JC-1, flow cytometry), MCF-7; conditions: 24 h
Procedure: The entire cell staining and cytometric analysis procedures were performed according to the instructions provided with the kit. In the first step, the cells (1 × 10^6 cells/sample) were washed and resuspended in 0.5 mL of buffer containing 10 µg/mL JC-1 dye. Incubation was carried out for 15 min at room temperature, protected from light. Afterward, the cells were washed twice with buffer, resuspended in 0.5 mL PBS, and immediately analyzed using a flow cytometer (BD FACSCanto II; 10,000 events measured) and the FACSDiva 6.0 software (BD Biosciences Systems, San Jose, CA, USA) to count the percentage of cells with reduced ΔΨm. The equipment was calibrated with the BD Cytometer Setup and Tracking Beads (BD Biosciences, San Diego, CA, USA).

caspase 8 [2] = experiment: Caspase 8 activity (FAM-FLICA, flow cytometry), MCF-7; conditions: 24 h
Procedure: (§1) The FAM-FLICA® Caspase Assay kits (all from ImmunoChemistry Technologies, Bloomington, MN, USA) and flow cytometer (BD FACSCanto II, BD Biosciences Systems, San Jose, CA, USA) were used to evaluate the activity of caspase 3/7, 8, and 9. MCF-7 and MDA-MB-231 cells were treated with selenoesters under the study (EDAG-1 and EDAG-8) and a reference agent (cisplatin) at two different concentrations (0.5 and 1 µM; treatment duration: 24 h). Following this, cells were collected, washed twice with cold PBS, and resuspended in an Apoptosis Wash Buffer to a final concentration of 5 × 10^5 cells/mL. In the next step, 290 µL each of cell suspension was taken and transferred into tubes. Then 10 µL of FLICA solution diluted immediately before use (1:5 v/v, using PBS) was added to the cells, mixed by pipetting, and incubated in the dark for 1 h at 37 °C. After this time, the cells were washed twice with 2 mL Apoptosis Wash Buffer, centrifuged, and resuspended in 300 µL of the buffer. Thus, prepared samples were immediately analyzed using a BD FACSCanto II flow cytometer (10,000 events) with the FACSDiva 6.0 software (both from BD Biosciences Systems, San Jose, CA, USA). The equipment calibration was carried out using the BD Cytometer Setup and Tracking Beads (BD Biosciences, San Diego, CA, USA).

LC3A/B = LC3A/B protein level by flow cytometry, MDA-MB-231; conditions: 24 h
Procedure: (§2) For this purpose, Akt (PE), Bax (FITC), Bcl-2 (Alexa Fluor® 647), LC3A/B (Alexa Fluor® 488), and p53 (Alexa Fluor® 488) antibodies conjugated to different fluorochromes (all from Cell Signaling Technology, Beverly, MA, USA) were utilized. Each assay was performed according to the manufacturer's protocol available on their website. After incubation with the tested compounds, the cells were centrifuged, resuspended in 4% formaldehyde (100 μL/1 × 10^6 cells), and fixed for 15 min at room temperature. Afterward, to remove the formaldehyde, the cells were washed by centrifugation with excess PBS and the permeabilization step was triggered. For this purpose, ice-cold 90% methanol was added to the pre-chilled cell pellet, gently vortexed, and incubated for 1 h on ice. Later, the cells were washed by centrifugation with excess PBS again, resuspended in 100 μL of 1:100 diluted primary antibody (stain buffer was used for dilution), and incubated for 1 h at room temperature in the dark. After incubation, the cells were washed, resuspended in 300 μL PBS, and immediately tested with a flow cytometer (BD FACSCanto II, BD Biosciences Systems, San Jose, CA, USA; 10,000 events measured). The obtained results were analyzed using the FACSDiva 6.0 software (BD Biosciences Systems, San Jose, CA, USA). In the case of the p53 protein, the MRF values were obtained first during the flow cytometer readout utilizing FACSDiva software and later analyzed using FCS Express 7 (De Novo Software, Pasadena, CA, USA). The equipment calibration was performed using the BD Cytometer Setup and Tracking Beads (BD Biosciences, San Diego, CA, USA).

[3] = test system: MCF-7 breast cancer cells; experiment: MTT cytotoxicity test, MCF-7; conditions: MCF-7, 24 h incubation, read-out: IC50, cell viability (MTT)
Procedure: MCF-7 and MDA-MB-231 human breast cancer cell lines, as well as MCF-10A normal human breast epithelial cells, were acquired from the American Type Culture Collection (ATCC, Manassas, VA, USA). The characteristics of the breast cancer cell lines used in this study are compared in Table 1. MCF-7 and MDA-MB-231 cells were cultured in Dulbecco’s modified Eagle’s medium (Gibco, San Diego, CA, USA), while MCF-10A cells were cultured in the mammary epithelial cell growth medium with the following supplements: BPE, hEGF, insulin, hydrocortisone, GA-1000 (Lonza, Basel, Switzerland). All media were complemented by 10% of fetal bovine serum (FBS) and 1% of the following antibiotics: penicillin and streptomycin (both Gibco, San Diego, CA, USA). The cells were maintained in an incubator that provides the optimal growth conditions for the cell culture: 5% CO2, 37 °C, and humidity in a range of 90–95%. The cells were cultured in 100 mm plates (Sarstedt, Newton, NC, USA). Subsequently, after obtaining a subconfluent cell culture, the cells were detached with 0.05% trypsin with 0.02% EDTA (Gibco, San Diego, CA, USA). […] In this study, cells that obtained 80% confluence were used. The MTT assay was used to determine the cytotoxic effects of the compounds in the study on MCF-7 and MDA-MB-231 breast cancer cells as well as MCF-10A normal human breast epithelial cells based on Carmichael’s method. […] After this time, the medium was removed, and the cell monolayer was washed with warm phosphate-buffered saline (PBS) without calcium and magnesium. In the next step, PBS and MTT solution in PBS (5 mg/mL) were added to each well to obtain a final MTT concentration of 0.5 mg/mL, and then the cells were incubated for 4 h (37 °C temperature, 5% CO2, 90–95% humidity). After the incubation period, the contents of each well were removed, 1 mL of DMSO was added to dissolve the formazan, and then the plate with the added DMSO was mixed for 5–10 min on a microplate shaker (Boeco, Hamburg, Germany). Then, 10 µL of Sorensen’s glycine buffer (a solution of 0.1 M glycine and 0.1 M sodium chloride adjusted to pH 10.5 with 0.1 M sodium hydroxide) was added. The absorbance of the obtained solution was immediately measured at a wavelength of λ = 570 nm using a Thermo Scientific Evolution 201 UV–VIS spectrophotometer (Thermo Fisher Scientific, Waltham, MA, USA). The absorbance result obtained in the control cells (without the addition of the tested compounds) was taken as 100%, while the viability of cells incubated with the tested compounds was presented as a percentage of the control value.

Bcl-2 = Bcl-2 protein level by flow cytometry, MCF-7; conditions: 24 h
Procedure: as §2

caspase 8 [4] = experiment: Caspase 8 activity (FAM-FLICA, flow cytometry), MDA-MB-231; conditions: 24 h
Procedure: as §1

Compound	Decreased ΔΨm ± SD (cells) ([1]; MCF-7, 0.5 μM) [%]	Decreased ΔΨm ± SD (cells) ([1]; MCF-7, 1 μM) [%]	Active caspase 8 ± SD (cells) (caspase 8 [2]; MCF-7, 0.5 μM) [%]	Active caspase 8 ± SD (cells) (caspase 8 [2]; MCF-7, 1 μM) [%]	LC3A/B positive cells ± SD (LC3A/B; MDA-MB-231, 0.5 μM) [%]	LC3A/B positive cells ± SD (LC3A/B; MDA-MB-231, 1 μM) [%]	IC50 ([3]; Homo sapiens, MCF7) [nM]	Bcl-2 negative cells ± SD (Bcl-2; MCF-7, 0.5 μM) [%]	Bcl-2 negative cells ± SD (Bcl-2; MCF-7, 1 μM) [%]	Active caspase 8 ± SD (cells) (caspase 8 [4]; MDA-MB-231, 0.5 μM) [%]	Active caspase 8 ± SD (cells) (caspase 8 [4]; MDA-MB-231, 1 μM) [%]	IC50 [3] [nM]
CC(=O)C[Se]C(=O)c1cc(C(=O)[Se]CC(C)=O)cc(C(=O)[Se]CC(C)=O)c1 [EDAG-8, Se,Se,Se-tris-(2-oxopropyl) benzene-1,3,5-tris-(carboxyselenoate)]	18.7 ± 0.9	54.2 ± 4.6	8.5 ± 0.8	19.4 ± 2.6	14.8 ± 0.5	17.0 ± 1.6	610 ± 50	45.2 ± 9.3	63.6 ± 3.7	15.0 ± 2.0	26.6 ± 3.6	
CC(=O)C[Se]C(=O)c1ccc(C(=O)[Se]CC(C)=O)cc1 [EDAG-1, Se,Se-bis(2-oxopropyl) benzene-1,4-bis(carboselenoate)]	10.0 ± 0.4	15.3 ± 1.1	6.1 ± 0.6	6.6 ± 1.1	10.5 ± 1.4	15.4 ± 1.3	470 ± 60	13.9 ± 0.9	38.4 ± 4.0	11.5 ± 0.9	14.4 ± 1.2	
N.N.[Cl][Pt][Cl] [Cisplatin, reference compound]	6.3 ± 1.6	7.2 ± 0.4	3.7 ± 0.2	4.1 ± 0.2	2.4 ± 0.5	3.2 ± 0.3		2.7 ± 0.2	2.7 ± 0.1	7.3 ± 0.7	8.0 ± 1.6	> 5000
